Experimental data taken from paper PMC5988656, “Phase I studies of AZD1208, a proviral integration Moloney virus kinase inhibitor in solid and haematological cancers” (British Journal of Cancer, 2018).

Assays:
AML blasts = assay: RPPA protein profiling in AML blasts during therapy; type: in vivo, human; conditions: samples from six patients
Experimental: In the AML study, a protein profiling analysis was carried out on primary blasts obtained from peripheral blood of patients (n = 6) before and during therapy with AZD1208. Due to time-sensitive aspects of the analysis, only patients from the MD Anderson Cancer Center (MDACC, Houston, TX, USA) were eligible. Whole blood was collected in heparinised tubes. Leukaemia cells were then isolated using Ficoll–Hypaque (specific gravity, 1.086; Life Technologies, Grand Island, NY, USA) density gradient separation, as previously described.[15] Cell number and mean cell volume were determined using a Coulter Channelyzer (Coulter Electronics, Hialeah, FL, USA).
AML blasts isolated from patients during therapy with AZD1208 were harvested and submitted for reverse phase protein array (RPPA) analysis to evaluate protein level changes across a set of 171 antibodies,[16] graphed using GraphPad Prism software (GraphPad Software, Inc., San Diego, CA, USA).

[1] = tested on: MYC-driven prostate cancer models; design: method as in PMID 25505253; conditions: cited from earlier work
[2] = tested on: patients with AML or advanced solid tumours; assay: Both dose-escalation studies pooled: adverse events; type: in vivo, human
Experimental: Safety and tolerability were assessed from the time of informed consent until the end of follow-up (defined as 30 and 28 days after study treatment was discontinued for the AML and solid tumour studies, respectively) by evaluation of adverse events (AEs), vital signs, ECGs and laboratory assessments. The CTCAE (version 4.0) was utilised to grade all AE events.
AEs were summarised by Medical Dictionary for Regulatory Activities (MedDRA) system organ class, MedDRA preferred term and CTCAE grade. Summary statistics of mean, median, standard deviation, minimum, maximum and number of observations were used.

advanced solid tumours = assay: Solid tumour study: tumour response (RECIST v.1.1); type: in vivo, human; conditions: for Best response: CR / Best response: Death / Best response: Not evaluable / Best response: Partial response / Best response: Progression / Best response: Stable disease ≥6 weeks: RECIST criteria
Experimental: In the solid tumour study, responses were evaluated using RECIST v.1.1. Contrast-enhanced CTs of the chest, abdomen, pelvis and neck were performed at screening (≤28 days before the start of study treatment), every 6 weeks (±1 week) up to 12 weeks, and then every 12 weeks (±1 week) until discontinuation of study treatment or withdrawal of consent, starting from Day 1 of Cycle 1.

N[C@@H]1CCCN(c2c(/C=C3\SC(=O)NC3=O)cccc2-c2ccccc2)C1 [AZD1208]
Patients with reductions in 4E-BP1 S65 (RPPA) (AML blasts): three
Patients with reductions in BAD S112 (RPPA) (AML blasts): four
Tumour growth [1]: significantly decreased tumour growth
Patients who experienced adverse events [2]: 98.5%
Patients with gastrointestinal adverse events [2]: 92.5%
Discontinued study treatment due to disease progression, patients (advanced solid tumours; 35 patients): 65.7%
Best response: CR (advanced solid tumours; 120 mg, n=3): 0 n (%)
Best response: Death (advanced solid tumours; 120 mg, n=3): 0 n (%)
Best response: Not evaluable (advanced solid tumours; 120 mg, n=3): 0 n (%)
Best response: Partial response (advanced solid tumours; 120 mg, n=3): 0 n (%)
Best response: Progression (advanced solid tumours; 120 mg, n=3): 1 (33.3) n (%)
Best response: Stable disease ≥6 weeks (advanced solid tumours; 120 mg, n=3): 2 (66.7) n (%)
Best response: CR (advanced solid tumours; 240 mg, n=7): 0 n (%)
Best response: Death (advanced solid tumours; 240 mg, n=7): 0 n (%)
Best response: Not evaluable (advanced solid tumours; 240 mg, n=7): 0 n (%)
Best response: Partial response (advanced solid tumours; 240 mg, n=7): 0 n (%)
Best response: Progression (advanced solid tumours; 240 mg, n=7): 2 (28.6) n (%)
Best response: Stable disease ≥6 weeks (advanced solid tumours; 240 mg, n=7): 5 (71.4) n (%)
Best response: CR (advanced solid tumours; 360 mg, n=5): 0 n (%)
Best response: Death (advanced solid tumours; 360 mg, n=5): 0 n (%)
Best response: Not evaluable (advanced solid tumours; 360 mg, n=5): 1 (20.0) n (%)
Best response: Partial response (advanced solid tumours; 360 mg, n=5): 0 n (%)
Best response: Progression (advanced solid tumours; 360 mg, n=5): 3 (60.0) n (%)
Best response: Stable disease ≥6 weeks (advanced solid tumours; 360 mg, n=5): 1 (20.0) n (%)
Best response: CR (advanced solid tumours; 540 mg, n=7): 0 n (%)
Best response: Death (advanced solid tumours; 540 mg, n=7): 0 n (%)
Best response: Not evaluable (advanced solid tumours; 540 mg, n=7): 1 (14.3) n (%)
Best response: Partial response (advanced solid tumours; 540 mg, n=7): 0 n (%)
Best response: Progression (advanced solid tumours; 540 mg, n=7): 3 (42.9) n (%)
Best response: Stable disease ≥6 weeks (advanced solid tumours; 540 mg, n=7): 3 (42.9) n (%)
Best response: CR (advanced solid tumours; 700 mg, n=6): 0 n (%)
Best response: Death (advanced solid tumours; 700 mg, n=6): 1 (16.7) n (%)
Best response: Not evaluable (advanced solid tumours; 700 mg, n=6): 2 (33.3) n (%)
Best response: Partial response (advanced solid tumours; 700 mg, n=6): 0 n (%)
Best response: Progression (advanced solid tumours; 700 mg, n=6): 3 (50.0) n (%)
Best response: Stable disease ≥6 weeks (advanced solid tumours; 700 mg, n=6): 1 (16.7) n (%)
Best response: CR (advanced solid tumours; 800 mg, n=5): 0 n (%)
Best response: Death (advanced solid tumours; 800 mg, n=5): 0 n (%)
Best response: Not evaluable (advanced solid tumours; 800 mg, n=5): 1 (20.0) n (%)
Best response: Partial response (advanced solid tumours; 800 mg, n=5): 0 n (%)
Best response: Progression (advanced solid tumours; 800 mg, n=5): 3 (60.0) n (%)
Best response: Stable disease ≥6 weeks (advanced solid tumours; 800 mg, n=5): 1 (20.0) n (%)
Best objective response: progression (advanced solid tumours; RECIST, all doses): 14 n
Best objective response: stable disease for ≥6 weeks (advanced solid tumours; RECIST, all doses): 13 n
Objective response rate (advanced solid tumours; RECIST, all doses): 0%
Patients with stable disease at Week 12 (advanced solid tumours; five patients evaluable): four
Prostate-specific antigen (PSA) levels (advanced solid tumours; one patient with prostate cancer): considerable reduction
